This is an account of results in ChEMBL document CHEMBL1201862, “PubChem BioAssay data set” (2004).

Assay in all cases: NCI-60 cell line screen, 48 h
Assay [1] relates to HCT-15.
Assay [2] has as its system SK-OV-3.
In assay [3] the test system is NCI-H460.
Assay [4] deals with KM12.
Assay [5] has as its system M14.
Assay [6] deals with SF-295.
For assay [7], the system named is Malme-3M.
Assay [8] has as its system HOP-92.
Assay [9] deals with TK-10.
Assay [10] has as its system BT-549.
In assay [11] the test system is K562.
Assay [12] relates to SF-539.
Assay [13] deals with SK-MEL-2.
Assay [14] has as its system UO-31.
Assay [15] relates to ACHN.
The test system of assay [16] is OVCAR-4.
Assay [17] has as its system EKVX.
The subject of assay [18] is PC-3.

Each structure is given as a SMILES string.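 1) Cells in 96-well plates. 2) Compound, 48 h, 5 concentrations. 3) Linear interpolation between surrounding doses. 4) Unreached endpoint = highest concentration. GI50 = concentration required for 50% inhibition of growth.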 The source made the active and inactive calls. Rule as the data show it: active = GI50 up to about 1.1 µM and inactive = higher. Some results are limits rather than exact numbers.

With `Nc1nc(N)c2cc(Sc3cccc(C(F)(F)F)c3)ccc2n1` [WR-159412], the GI50 in assay [1] was 0.499 µM; in [2], 9.08 µM (inactive); in [3], 0.466 µM (active); in assay [4], 2.59 µM (inactive); in assay [5], 1.14 µM (inactive); in assay [6], 0.656 µM (active). Moreover, the GI50 is 1.02 µM (active) in assay [7]; 2.94 µM (inactive) in assay [8]; 10.1 µM (inactive) in assay [9]; 6.07 µM (inactive) in assay [10]; 0.0883 µM (active) in [11]; 3.17 µM (inactive) in assay [12]. For the same compound, the GI50 in assay [13] is 2.23 µM (inactive); in assay [14] it was 1.2 µM (inactive); in assay [15], 0.885 µM (active); in assay [16] it was 6.78 µM (inactive); in assay [17] it was 3.56 µM (inactive).

Consider `O=C1C(NCCc2cc(Br)c(O)c(Br)c2)=CC(=O)c2ncccc21`, for which the GI50 in assay [1] was 5.79 µM; in assay [2] it was 14.8 µM (inactive); in assay [3], 2.37 µM (inactive); in assay [4], 4.43 µM (inactive); in assay [5], 2.51 µM (inactive); in assay [6], 2.34 µM (inactive). The GI50 in assay [7] was 1.26 µM (inactive); in assay [8], 28.1 µM (inactive); in [9] it was 17.1 µM (inactive); in assay [11] it was 3.21 µM (inactive); in assay [12], 2.37 µM (inactive); in [13] it was 8.07 µM (inactive). Besides, the GI50 in assay [18] was 20.9 µM (inactive); in assay [14] it was 5.87 µM (inactive); in assay [15], 6.38 µM (inactive); in assay [16] it was 6 µM (inactive); in assay [17], 16.3 µM (inactive).

`O=c1ccc(=O)c2c1c1[nH]c3ccccc3c1c1c(=O)c3ccccc3c(=O)c21`: the GI50 in assay [1] is more than 10 µM; in assay [2], > 10 µM (inactive); in assay [3], > 10 µM (inactive); in assay [4] it was > 10 µM (inactive); in assay [5], > 10 µM (inactive); in assay [6], > 10 µM (inactive). Further, the GI50 in assay [7] is > 10 µM (inactive); in assay [8], 0.333 µM (active); in assay [9] it was 4.92 µM (inactive); in [11], 5.32 µM (inactive); in assay [12] it was > 10 µM (inactive); in assay [13] it was > 10 µM (inactive). Also, the GI50 in assay [18] is > 10 µM (inactive); in assay [14] it was 5.66 µM (inactive); in [15] it was > 10 µM (inactive); in assay [16], > 10 µM (inactive); in assay [17] it was > 10 µM (inactive).

For the compound `O=C1CC(CC(=O)c2ccc(Br)cc2)C(O)=C1C(=O)c1ccc(Br)cc1` (centres undefined), the GI50 is more than 100 µM in assay [1]; > 100 µM (inactive) in assay [2]; 50.7 µM (inactive) in [3]; 11.5 µM (inactive) in assay [4]; 85.5 µM (inactive) in [5]; 53.1 µM (inactive) in [6]. The GI50 in assay [7] was 69.7 µM (inactive); in [8] it was 30.1 µM (inactive); in assay [9], > 100 µM (inactive); in [11], 44.9 µM (inactive); in [12], 56.4 µM (inactive); in [13], > 100 µM (inactive). The GI50 in [18] is 98.2 µM (inactive); in [14] it was 57.9 µM (inactive); in [15], > 100 µM (inactive); in [17], > 100 µM (inactive).

For `CCn1c(CCCc2nc3c(=O)n(C)c(=O)n(C)c3[nH]2)nc2c1c(=O)n(C)c(=O)n2C`, the GI50 was more than 100 µM in assay [1]; > 100 µM (inactive) in assay [2]; > 100 µM (inactive) in assay [3]; > 100 µM (inactive) in assay [4]; > 100 µM (inactive) in assay [5]; > 100 µM (inactive) in [6]. Also, the GI50 is > 100 µM (inactive) in assay [7]; > 100 µM (inactive) in [9]; > 100 µM (inactive) in assay [10]; 75.7 µM (inactive) in assay [11]; 14.9 µM (inactive) in assay [12]; > 100 µM (inactive) in assay [18]. The GI50 is > 100 µM (inactive) in assay [14], > 100 µM (inactive) in assay [15], > 100 µM (inactive) in assay [16] and 43 µM (inactive) in assay [17].

In the case of `N/N=C1\CCCc2c1no[n+]2[O-]`, the GI50 in assay [1] is more than 100 µM; in assay [2] it was > 100 µM (inactive); in [3], > 100 µM (inactive); in assay [4], > 100 µM (inactive); in assay [5], > 100 µM (inactive); in assay [6], > 100 µM (inactive). Besides, the GI50 in assay [7], in [9], in assay [11], in assay [12], in [13] and in assay [18] was > 100 µM (inactive) each time. Besides, the GI50 in assay [14], in assay [15], in assay [16] and in assay [17] was > 100 µM (inactive) throughout.

Turning to `NS(=O)(=O)c1nnc(NSc2ccc([N+](=O)[O-])cc2)s1`, the GI50 in [1] was more than 100 µM; in [2], > 100 µM (inactive); in [3], > 100 µM (inactive); in assay [4], > 10 µM (inactive); in [5], > 100 µM (inactive); in assay [6] it was > 100 µM (inactive). Also, the GI50 in assay [7], in [8], in assay [9], in assay [10], in assay [11] and in assay [13] was > 100 µM (inactive) throughout. The GI50 in assay [14] is > 100 µM (inactive); in assay [15], > 100 µM (inactive); in assay [16] it was 48.9 µM (inactive); in assay [17], > 100 µM (inactive).

On to `COc1c(-c2ccc(F)cc2)oc2cc(O)cc(O)c2c1=O`, for which the GI50 in assay [1] was 18.5 µM; in assay [2], 30.5 µM (inactive); in [3] it was 21.7 µM (inactive); in [4], 30.5 µM (inactive); in assay [5] it was 34.8 µM (inactive); in [6] it was 26.1 µM (inactive). Besides, the GI50 in assay [7] is 26.6 µM (inactive); in assay [8], 35.6 µM (inactive); in assay [11], 38.9 µM (inactive); in [12], 19.8 µM (inactive); in assay [13], 23.3 µM (inactive); in [18], 34 µM (inactive). Also, the GI50 is 16.6 µM (inactive) in [14], 30.7 µM (inactive) in [15] and 14.6 µM (inactive) in [17].

For the compound `CC12CCC3[C@@H](CC3(C)C)C(O)(CCC1=O)C2` (some centres undefined), the GI50 in assay [1] was more than 100 µM; in [2] it was > 100 µM (inactive); in assay [4], > 100 µM (inactive); in assay [5] it was > 100 µM (inactive); in assay [6], > 100 µM (inactive); in [7], > 100 µM (inactive). The GI50 in assay [8], in assay [9], in assay [11], in assay [12], in [13] and in assay [18] was > 100 µM (inactive) each time. The GI50 in [14], in assay [15], in [16] and in [17] was > 100 µM (inactive) each time.

For the compound `O=C(O)CCC(NC(=O)c1ccc(Oc2nc3ccccc3nc2-c2ccccc2)cc1)C(=O)O` (centres undefined), the GI50 in assay [1] is more than 100 µM; in assay [2], > 100 µM (inactive); in assay [3] it was > 100 µM (inactive); in assay [4], > 100 µM (inactive); in assay [5], > 100 µM (inactive); in assay [6] it was > 100 µM (inactive). In addition, the GI50 in [7], in assay [8], in assay [9], in assay [11], in assay [12] and in assay [13] was > 100 µM (inactive) in each case. Further, the GI50 in assay [18], in assay [14], in [15], in assay [16] and in [17] was > 100 µM (inactive) each time.

Regarding `COc1cc(C2SC(=N)Nc3c2c(C)nn3C(=O)Cc2ccccc2)cc(OC)c1OC` (centres undefined), the GI50 was more than 100 µM in assay [1]; > 100 µM (inactive) in [2]; > 100 µM (inactive) in [3]; > 100 µM (inactive) in assay [4]; > 100 µM (inactive) in assay [5]; > 100 µM (inactive) in assay [6]. In addition, the GI50 in assay [9], in assay [10], in assay [11], in assay [12], in assay [18] and in [14] was > 100 µM (inactive) throughout. The GI50 in [15] and in assay [17] was > 100 µM (inactive) throughout.

`CCOC(=O)C1C(c2ccco2)C2(C#N)C(=N)OC1(C)C2(C#N)C#N` (centres undefined): the GI50 in [1] was 33.1 µM; in assay [2] it was > 100 µM (inactive); in [4], > 100 µM (inactive); in [5], > 100 µM (inactive); in [6] it was > 100 µM (inactive); in assay [7], > 100 µM (inactive). Besides, the GI50 in assay [8], in assay [9], in assay [11], in assay [12], in [13] and in assay [18] was > 100 µM (inactive) throughout. For the same compound, the GI50 in assay [14], in assay [15] and in assay [17] was > 100 µM (inactive) each time.

On to `COc1cc2c(cc1C)NC(=O)/C2=C\c1ccncc1`, for which the GI50 in [1] is 4.28 µM; in [2], 3.96 µM (inactive); in assay [3], 17.7 µM (inactive); in [4] it was 3.48 µM (inactive); in assay [5], 3.98 µM (inactive); in assay [6] it was 4.99 µM (inactive). Also, the GI50 in assay [7] was 15.5 µM (inactive); in [8] it was 26.1 µM (inactive); in assay [9] it was 5.86 µM (inactive); in assay [11], 3.66 µM (inactive); in assay [12] it was 2.82 µM (inactive); in assay [13], 2.97 µM (inactive). The GI50 is 6.55 µM (inactive) in [18]; 4.1 µM (inactive) in assay [14]; 6.05 µM (inactive) in [15]; > 100 µM (inactive) in assay [16]; 6.7 µM (inactive) in assay [17].
